Assay results from patent publication US10975042B2, “Method for purifying an amino acid-n-carboxy anhydride” (SHIN-ETSU CHEMICAL CO., LTD., priority 2018, dated 2021).

Test: Long-term storage stability of NCA, purity by DSC
Type: physicochemical
Settings: DSC
Protocol: In Examples and Comparative Examples, the purity of each NCA was measured using differential scanning calorimeter (DSC) in accordance with 2.52 thermal analysis method of The Japanese Pharmacopoeia, 17th ed. (2.4.4. measurement of purity). The measurement was performed using Thermo plus EVO DSC8230 (manufactured by Rigalu Corporation) as a measurement apparatus with the sample amount of 1 mg at a temperature increasing rate of 1° C./minute. Incidentally, it is conceived that precise measurement cannot be guaranteed unless the purity is 98 mol % or more according to 2.52 thermal analysis method of The Japanese Pharmacopoeia, 17th ed. (2.4.4. measurement of purity).
Each purified NCA was evaluated for long-term storage stability. […] Regarding the conditions of −20±5° C., the results of purity measured by DSC at after a half year, after 1 year, and after 2 years are shown. Regarding the conditions of 0 to 5° C., the results of purity measured by DSC at after 1 month, 2 months, and a half year are shown. As a comparison, commercially available NCA shown by the general formula (A) (manufactured by Isochem), the purity of which is more than 98 mol % based on the DSC measurement, was evaluated and shown as Comparison 1. This NCA has a residual chlorine concentration of 0.030 mass % and belongs to a lot with extremely low residual chlorine concentration in commercially available NCAs.

[1] = initial value of storage test at 0 to 5° C.
[2] = initial value of storage test at −20±5° C.

For `O=C(CCC1NC(=O)OC1=O)OCc1ccccc1` (stereo not shown) [(B)], the Purity after purification [1] was 99.40 mol %, the Purity after purification [2] was 99.40 mol % and the “Purity after 1 month from purification” value (storage at 0 to 5° C.) was 99.39 mol %. For the same compound, the “Purity after 2 months from purification” value (storage at 0 to 5° C.) was 99.41 mol %, the “Purity after a half year from purification” value (“Purity after a half year” for short) (storage at 0 to 5° C.) was 99.41 mol % and the “Purity after 1 year from purification” value (storage at −20±5° C.) was 99.41 mol %. The “Purity after 2 years from purification” value (storage at −20±5° C.) was 99.40 mol % and the “Purity after a half year” value (storage at −20±5° C.) was 99.40 mol %.

In the case of `CC(=O)OCCCC1NC(=O)OC1=O` (stereo not shown) [(C)], the Purity after purification [1] was 99.20 mol %, the Purity after purification [2] was 99.20 mol % and the “Purity after 1 month from purification” value (storage at 0 to 5° C.) was 99.22 mol %. The “Purity after 2 months from purification” value (storage at 0 to 5° C.) was 99.21 mol %, the “Purity after a half year” value (storage at 0 to 5° C.) was 99.19 mol % and the “Purity after 1 year from purification” value (storage at −20±5° C.) was 99.22 mol %. For the same compound, the “Purity after 2 years from purification” value (storage at −20±5° C.) was 99.21 mol % and the “Purity after a half year” value (storage at −20±5° C.) was 99.22 mol %.

In the case of `COCOCCCC1NC(=O)OC1=O` (stereo not shown) [(D)], the Purity after purification [1] was 99.00 mol %, the Purity after purification [2] was 99.00 mol % and the “Purity after 1 month from purification” value (storage at 0 to 5° C.) was 98.98 mol %. For the same compound, the “Purity after 2 months from purification” value (storage at 0 to 5° C.) was 99.00 mol %, the “Purity after a half year” value (storage at 0 to 5° C.) was 98.95 mol % and the “Purity after 1 year from purification” value (storage at −20±5° C.) was 99.00 mol %. The “Purity after 2 years from purification” value (storage at −20±5° C.) was 99.05 mol % and the “Purity after a half year” value (storage at −20±5° C.) was 98.95 mol %.

In the case of `O=C1NC(CCCOCc2ccccc2)C(=O)O1` (stereo not shown) [(E)], the Purity after purification [1] was 98.90 mol %, the Purity after purification [2] was 98.90 mol % and the “Purity after 1 month from purification” value (storage at 0 to 5° C.) was 98.90 mol %. For the same compound, the “Purity after 2 months from purification” value (storage at 0 to 5° C.) was 98.88 mol %, the “Purity after a half year” value (storage at 0 to 5° C.) was 98.86 mol % and the “Purity after 1 year from purification” value (storage at −20±5° C.) was 98.88 mol %. For the same compound, the “Purity after 2 years from purification” value (storage at −20±5° C.) was 98.89 mol % and the “Purity after a half year” value (storage at −20±5° C.) was 98.89 mol %.

With `CC(C)(C)OCCCC1NC(=O)OC1=O` (stereo not shown) [(F)] the Purity after purification [1] was 99.10 mol %, the Purity after purification [2] was 99.10 mol % and the “Purity after 1 month from purification” value (storage at 0 to 5° C.) was 99.12 mol %. The “Purity after 2 months from purification” value (storage at 0 to 5° C.) was 99.10 mol %, the “Purity after a half year” value (storage at 0 to 5° C.) was 99.10 mol % and the “Purity after 1 year from purification” value (storage at −20±5° C.) was 99.12 mol %. For the same compound, the “Purity after 2 years from purification” value (storage at −20±5° C.) was 99.12 mol % and the “Purity after a half year” value (storage at −20±5° C.) was 99.12 mol %.

For `O=C(CC1NC(=O)OC1=O)OCc1ccccc1` (stereo not shown) [(G)], the Purity after purification [1] was 99.25 mol %, the Purity after purification [2] was 99.25 mol % and the “Purity after 1 month from purification” value (storage at 0 to 5° C.) was 99.24 mol %. The “Purity after 2 months from purification” value (storage at 0 to 5° C.) was 99.25 mol %, the “Purity after a half year” value (storage at 0 to 5° C.) was 99.26 mol % and the “Purity after 1 year from purification” value (storage at −20±5° C.) was 99.26 mol %. For the same compound, the “Purity after 2 years from purification” value (storage at −20±5° C.) was 99.25 mol % and the “Purity after a half year” value (storage at −20±5° C.) was 99.25 mol %.

With `CC(C)(C)OC(=O)CC1NC(=O)OC1=O` (stereo not shown) [(H)] the Purity after purification [1] was 99.18 mol %, the Purity after purification [2] was 99.18 mol % and the “Purity after 1 month from purification” value (storage at 0 to 5° C.) was 99.19 mol %. The “Purity after 2 months from purification” value (storage at 0 to 5° C.) was 99.19 mol %, the “Purity after a half year” value (storage at 0 to 5° C.) was 99.18 mol % and the “Purity after 1 year from purification” value (storage at −20±5° C.) was 99.16 mol %. For the same compound, the “Purity after 2 years from purification” value (storage at −20±5° C.) was 99.16 mol % and the “Purity after a half year” value (storage at −20±5° C.) was 99.17 mol %.

With `CC(C)(C)[Si](OCCC1NC(=O)OC1=O)(c1ccccc1)c1ccccc1` (stereo not shown) [(I)] the Purity after purification [1] was 99.35 mol %, the Purity after purification [2] was 99.35 mol % and the “Purity after 1 month from purification” value (storage at 0 to 5° C.) was 99.35 mol %. For the same compound, the “Purity after 2 months from purification” value (storage at 0 to 5° C.) was 99.36 mol %, the “Purity after a half year” value (storage at 0 to 5° C.) was 99.36 mol % and the “Purity after 1 year from purification” value (storage at −20±5° C.) was 99.36 mol %. The “Purity after 2 years from purification” value (storage at −20±5° C.) was 99.36 mol % and the “Purity after a half year” value (storage at −20±5° C.) was 99.35 mol %.

For `O=C1CNC(=O)O1` [(J)], the Purity after purification [1] was 99.10 mol %, the Purity after purification [2] was 99.10 mol % and the “Purity after 1 month from purification” value (storage at 0 to 5° C.) was 99.12 mol %. The “Purity after 2 months from purification” value (storage at 0 to 5° C.) was 99.10 mol %, the “Purity after a half year” value (storage at 0 to 5° C.) was 99.08 mol % and the “Purity after 1 year from purification” value (storage at −20±5° C.) was 99.12 mol %. The “Purity after 2 years from purification” value (storage at −20±5° C.) was 99.10 mol % and the “Purity after a half year” value (storage at −20±5° C.) was 99.15 mol %.

For `CN1CC(=O)OC1=O` [(K)], the Purity after purification [1] was 98.94 mol %, the Purity after purification [2] was 98.94 mol % and the “Purity after 1 month from purification” value (storage at 0 to 5° C.) was 98.93 mol %. For the same compound, the “Purity after 2 months from purification” value (storage at 0 to 5° C.) was 98.92 mol %, the “Purity after a half year” value (storage at 0 to 5° C.) was 98.90 mol % and the “Purity after 1 year from purification” value (storage at −20±5° C.) was 98.92 mol %. For the same compound, the “Purity after 2 years from purification” value (storage at −20±5° C.) was 98.93 mol % and the “Purity after a half year” value (storage at −20±5° C.) was 98.90 mol %.

In the case of `CC(C)(C)OC(=O)N1CC(=O)OC1=O` [(L)], the Purity after purification [1] was 99.05 mol %, the Purity after purification [2] was 99.05 mol % and the “Purity after 1 month from purification” value (storage at 0 to 5° C.) was 99.07 mol %. For the same compound, the “Purity after 2 months from purification” value (storage at 0 to 5° C.) was 99.05 mol %, the “Purity after a half year” value (storage at 0 to 5° C.) was 99.07 mol % and the “Purity after 1 year from purification” value (storage at −20±5° C.) was 99.04 mol %. The “Purity after 2 years from purification” value (storage at −20±5° C.) was 99.05 mol % and the “Purity after a half year” value (storage at −20±5° C.) was 99.02 mol %.

With `CC(=O)N1CC(=O)OC1=O` [(M)] the Purity after purification [1] was 99.22 mol %, the Purity after purification [2] was 99.22 mol % and the “Purity after 1 month from purification” value (storage at 0 to 5° C.) was 99.23 mol %. The “Purity after 2 months from purification” value (storage at 0 to 5° C.) was 99.22 mol %, the “Purity after a half year” value (storage at 0 to 5° C.) was 99.24 mol % and the “Purity after 1 year from purification” value (storage at −20±5° C.) was 99.23 mol %. The “Purity after 2 years from purification” value (storage at −20±5° C.) was 99.23 mol % and the “Purity after a half year” value (storage at −20±5° C.) was 99.23 mol %.

In the case of `O=C1NC(Cc2ccccc2)C(=O)O1` (stereo not shown) [(N)], the Purity after purification [1] was 98.88 mol %, the Purity after purification [2] was 98.88 mol % and the “Purity after 1 month from purification” value (storage at 0 to 5° C.) was 98.88 mol %. For the same compound, the “Purity after 2 months from purification” value (storage at 0 to 5° C.) was 98.86 mol %, the “Purity after a half year” value (storage at 0 to 5° C.) was 98.86 mol % and the “Purity after 1 year from purification” value (storage at −20±5° C.) was 98.86 mol %. For the same compound, the “Purity after 2 years from purification” value (storage at −20±5° C.) was 98.85 mol % and the “Purity after a half year” value (storage at −20±5° C.) was 98.85 mol %.

For `CC(C)C1NC(=O)OC1=O` (stereo not shown) [(O)], the Purity after purification [1] was 98.80 mol %, the Purity after purification [2] was 98.80 mol % and the “Purity after 1 month from purification” value (storage at 0 to 5° C.) was 98.77 mol %. For the same compound, the “Purity after 2 months from purification” value (storage at 0 to 5° C.) was 98.75 mol %, the “Purity after a half year” value (storage at 0 to 5° C.) was 98.73 mol % and the “Purity after 1 year from purification” value (storage at −20±5° C.) was 98.79 mol %. For the same compound, the “Purity after 2 years from purification” value (storage at −20±5° C.) was 98.79 mol % and the “Purity after a half year” value (storage at −20±5° C.) was 98.77 mol %.

In the case of `CC(C)CC1NC(=O)OC1=O` (stereo not shown) [(P)], the Purity after purification [1] was 98.91 mol %, the Purity after purification [2] was 98.91 mol % and the “Purity after 1 month from purification” value (storage at 0 to 5° C.) was 98.93 mol %. The “Purity after 2 months from purification” value (storage at 0 to 5° C.) was 98.94 mol %, the “Purity after a half year” value (storage at 0 to 5° C.) was 98.94 mol % and the “Purity after 1 year from purification” value (storage at −20±5° C.) was 98.90 mol %. The “Purity after 2 years from purification” value (storage at −20±5° C.) was 98.91 mol % and the “Purity after a half year” value (storage at −20±5° C.) was 98.92 mol %.

For `O=C1CCNC(=O)O1` [(Q)], the Purity after purification [1] was 99.32 mol %, the Purity after purification [2] was 99.32 mol % and the “Purity after 1 month from purification” value (storage at 0 to 5° C.) was 99.31 mol %. The “Purity after 2 months from purification” value (storage at 0 to 5° C.) was 99.31 mol %, the “Purity after a half year” value (storage at 0 to 5° C.) was 99.32 mol % and the “Purity after 1 year from purification” value (storage at −20±5° C.) was 99.33 mol %. For the same compound, the “Purity after 2 years from purification” value (storage at −20±5° C.) was 99.33 mol % and the “Purity after a half year” value (storage at −20±5° C.) was 99.33 mol %.

In the case of `O=C1CCCNC(=O)O1` [(R)], the Purity after purification [1] was 99.03 mol %, the Purity after purification [2] was 99.03 mol % and the “Purity after 1 month from purification” value (storage at 0 to 5° C.) was 99.05 mol %. The “Purity after 2 months from purification” value (storage at 0 to 5° C.) was 99.04 mol %, the “Purity after a half year” value (storage at 0 to 5° C.) was 99.03 mol % and the “Purity after 1 year from purification” value (storage at −20±5° C.) was 99.06 mol %. For the same compound, the “Purity after 2 years from purification” value (storage at −20±5° C.) was 99.05 mol % and the “Purity after a half year” value (storage at −20±5° C.) was 99.07 mol %.
